Laboratory results: paper PMC8002391, “A High-Throughput Screening System Based on Fluorescence-Activated Cell Sorting for the Directed Evolution of Chitinase A” (International Journal of Molecular Sciences, 2021)

Target: T1, ChiA (chitinase A) (Bacillus licheniformis, UniProt B7UB89)
T1 construct: synthetic chiA gene in pET22b(+), in frame with pelB signal for periplasmic expression in E. coli BL21 (DE3); whole cells assayed
Assay: fluorescence microtiter plate assay with whole E. coli cells expressing chiA (4MU release)
Format: cell-based
Settings: 0.1 M sodium acetate pH 6.0; 25 µL cells + 25 µL 0.5 mg/mL 4MUTC; empty-vector cells as control

T1 sequence (B7UB89 1-580): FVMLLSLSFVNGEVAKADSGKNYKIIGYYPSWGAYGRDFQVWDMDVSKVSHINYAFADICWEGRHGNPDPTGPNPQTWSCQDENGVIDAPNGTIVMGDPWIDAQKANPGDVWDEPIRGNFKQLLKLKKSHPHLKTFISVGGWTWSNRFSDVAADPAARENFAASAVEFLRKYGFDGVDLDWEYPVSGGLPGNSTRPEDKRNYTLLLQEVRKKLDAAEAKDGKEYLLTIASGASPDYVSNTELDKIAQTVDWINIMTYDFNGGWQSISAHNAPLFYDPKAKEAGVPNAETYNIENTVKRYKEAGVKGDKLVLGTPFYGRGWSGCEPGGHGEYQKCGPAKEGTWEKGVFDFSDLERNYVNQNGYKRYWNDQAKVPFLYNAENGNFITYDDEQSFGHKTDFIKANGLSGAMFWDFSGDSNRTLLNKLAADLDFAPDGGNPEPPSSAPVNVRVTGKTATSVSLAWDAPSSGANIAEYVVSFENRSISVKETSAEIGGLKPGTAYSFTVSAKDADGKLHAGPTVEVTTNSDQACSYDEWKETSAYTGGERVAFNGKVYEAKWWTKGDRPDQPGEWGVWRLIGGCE

CC(=O)N[C@H]1[C@H](Oc2ccc3c(C)cc(=O)oc3c2)O[C@H](CO)[C@@H](O[C@@H]2O[C@H](CO)[C@@H](O[C@@H]3O[C@H](CO)[C@@H](O)[C@H](O)[C@H]3NC(C)=O)[C@H](O)[C@H]2NC(C)=O)[C@@H]1O [4-methylumbelliferyl β-D-N,N′,N″-triacetyl chitotrioside]
fluorescence microtiter plate assay with whole E. coli cells expressing chiA (4M): comparing E. coli cells expressing chiA to those transformed with the empty vector
